In patent US11912737B2, “19-nor neuroactive steroids and methods of use thereof” (Sage Therapeutics, Inc., priority 2013, dated 2024):

molecular target: α1β2γ2 GABAA receptor (Homo sapiens (Human), UniProt P14867+P47870); assay: not given; conditions: not given

| SMILES | EC50 [nM] |
| --- | --- |
| C[C@@H]1CN(CC(=O)[C@H]2CC[C@H]3[C@@H]4CC[C@@H]5C[C@](C)(O)CC[C@@H]5[C@H]4CC[C@]23C)CCO1 [Entry 2] | 1000 to 2000 |
| C[C@@H]1COCCN1CC(=O)[C@H]1CC[C@H]2[C@@H]3CC[C@@H]4C[C@](C)(O)CC[C@@H]4[C@H]3CC[C@]12C [Entry 3] | > 2000 |

same assay, conditions: LTK, read-out: GABA (α1β2γ2) Qpatch in Ltk, % efficacy at 10 μM, Qpatch, Ltk cells, 10 μM compound, 2 μM GABA

| SMILES | Emax at 10 µM [%] |
| --- | --- |
| C[C@@H]1CN(CC(=O)[C@H]2CC[C@H]3[C@@H]4CC[C@@H]5C[C@](C)(O)CC[C@@H]5[C@H]4CC[C@]23C)CCO1 [Entry 6] | 100 to 500 |
| C[C@@H]1COCCN1CC(=O)[C@H]1CC[C@H]2[C@@H]3CC[C@@H]4C[C@](C)(O)CC[C@@H]4[C@H]3CC[C@]12C [Entry 7] | 100 to 500 |
| CNC(=O)N1CCN(CC(=O)[C@H]2CC[C@H]3[C@@H]4CC[C@@H]5C[C@](C)(O)CC[C@@H]5[C@H]4CC[C@]23C)CC1 [Entry 9] | 100 to 500 |
| CC(=O)N1CCN(CC(=O)[C@H]2CC[C@H]3[C@@H]4CC[C@H]5C[C@](C)(O)CC[C@@H]5[C@H]4CC[C@]23C)CC1 [Entry 10] | 100 to 500 |
| CC(=O)N1CCN(CC(=O)[C@H]2CC[C@H]3[C@@H]4CC[C@@H]5C[C@](C)(O)CC[C@@H]5[C@H]4CC[C@]23C)CC1 [Entry 17] | 100 to 500 |
| CC(=O)N1CCN(CC(=O)[C@H]2CC[C@H]3[C@@H]4CC[C@H]5C[C@](C)(O)[C@H](C)C[C@@H]5[C@H]4CC[C@]23C)CC1 [Entry 26] | 100 to 500 |
| COC[C@@]1(O)CC[C@H]2[C@H](CC[C@@H]3[C@@H]2CC[C@]2(C)[C@@H](C(=O)CN4CCN(S(C)(=O)=O)CC4)CC[C@@H]32)C1 [Entry 30] | > 500 |
| C[C@]12CC[C@H]3[C@@H](CC[C@@H]4C[C@@](O)(CF)CC[C@@H]43)[C@@H]1CC[C@@H]2C(=O)CN1CCN(S(C)(=O)=O)CC1 [Entry 32] | > 500 |
| CC[C@@]1(O)CC[C@H]2[C@H](CC[C@@H]3[C@@H]2CC[C@]2(C)[C@@H](C(=O)CN4CCN(S(C)(=O)=O)CC4)CC[C@@H]32)C1 [Entry 34] | 100 to 500 |
| C[C@@H]1C[C@H]2[C@@H](CC[C@@H]3[C@@H]2CC[C@]2(C)[C@@H](C(=O)CN4CCOCC4)CC[C@@H]32)C[C@]1(C)O [Entry 47] | 10 to 100 |
| COC[C@@]1(O)CC[C@H]2[C@@H](CC[C@@H]3[C@@H]2CC[C@]2(C)[C@@H](C(=O)CN4CCOCC4)CC[C@@H]32)C1 [Entry 50] | 10 to 100 |

same assay, conditions: LTK, read-out: GABAa alpha1 (α1β2γ2) Emax (%), potentiation of GABA EC20 (2 μM) current

| SMILES | Emax [%] |
| --- | --- |
| C[C@@H]1CN(CC(=O)[C@H]2CC[C@H]3[C@@H]4CC[C@@H]5C[C@](C)(O)CC[C@@H]5[C@H]4CC[C@]23C)CCO1 [Entry 2] | 0 to 500 |
| C[C@@H]1COCCN1CC(=O)[C@H]1CC[C@H]2[C@@H]3CC[C@@H]4C[C@](C)(O)CC[C@@H]4[C@H]3CC[C@]12C [Entry 3] | 0 to 500 |

same assay, conditions: Qpatch, Ltk cells, 10 μM compound, 2 μM GABA

| SMILES | GABA (α1β2γ2) Qpatch in Ltk, % efficacy at 10 μM |
| --- | --- |
| COC[C@@]1(O)CC[C@H]2[C@@H](CC[C@@H]3[C@@H]2CC[C@]2(C)[C@@H](C(=O)CN4CCN(S(C)(=O)=O)CC4)CC[C@@H]32)C1 [Entry 29] | B (“B” ≥100-500) |

molecular target: [35S]-TBPS binding, rat brain cortical membranes; assay: Steroid inhibition of [35S]-TBPS binding; conditions: 3 nM [35S]-TBPS, in the presence of 5 μM GABA
Description: Steroid Inhibition of TBPS Binding
[35S]-t-Butylbicylophorothionate (TBPS) binding assays using rat brain cortical membranes in the presence of 5 μM GABA has been described (Gee et al, J. Pharmacol. Exp. Ther. 1987, 241, 346-353; Hawkinson et al, Mol. Pharmacol. 1994, 46, 977-985; Lewin, A. H et al., Mol. Pharmacol. 1989, 35, 189-194).
Briefly, cortices are rapidly removed following decapitation of carbon dioxide-anesthetized Sprague-Dawley rats (200-250 g). The cortices are homogenized in 10 volumes of ice-cold 0.32 M sucrose using a glass/teflon homogenizer and centrifuged at 1500×g for 10 min at 4° C. The resultant supernatants are centrifuged at 10,000×g for 20 min at 4° C. to obtain the P2 pellets. The P2 pellets are resuspended in 200 mM NaCl/50 mM Na—K phosphate pH 7.4 buffer and centrifuged at 10,000×g for 10 min at 4° C. This washing procedure is repeated twice and the pellets are resuspended in 10 volumes of buffer. Aliquots (100 μL) of the membrane suspensions are incubated with 3 nM [^35S]-TBPS and 5 μL aliquots of test drug dissolved in dimethyl sulfoxide (DMSO) (final 0.5%) in the presence of 5 μM GABA. The incubation is brought to a final volume of 1.0 mL with buffer. Nonspecific binding is determined in the presence of 2 μM unlabeled TBPS and ranged from 15 to 25%. Following a 90 min incubation at room temp, the assays are terminated by filtration through glass fiber filters (Schleicher and Schuell No. 32) using a cell harvester (Brandel) and rinsed three times with ice-cold buffer. Filter bound radioactivity is measured by liquid scintillation spectrometry. Non-linear curve fitting of the overall data for each drug averaged for each concentration is done using Prism (GraphPad).
Various compounds are or can be screened to determine their potential as modulators of [^355]-TBPS binding in vitro. These assays are or can be performed in accordance with the above discussed procedures.

| SMILES | IC50 [nM] |
| --- | --- |
| C[C@@]1(O)CC[C@H]2[C@H](CC[C@@H]3[C@@H]2CC[C@]2(C)[C@@H](C(=O)CN4CC(O)C4)CC[C@@H]32)C1 [Entry 5] | ≥ 500 |
| C[C@@H]1COCCN1CC(=O)[C@H]1CC[C@H]2[C@@H]3CC[C@@H]4C[C@](C)(O)CC[C@@H]4[C@H]3CC[C@]12C [Entry 11] | 100 to 500 |
| C[C@@]1(O)CC[C@H]2[C@@H](CC[C@@H]3[C@@H]2CC[C@]2(C)[C@@H](C(=O)CN4CCC(O)CC4)CC[C@@H]32)C1 [Entry 12] | ≥ 500 |
| CC(=O)N1CCN(CC(=O)[C@H]2CC[C@H]3[C@@H]4CC[C@H]5C[C@](C)(O)CC[C@@H]5[C@H]4CC[C@]23C)CC1 [Entry 13] | 100 to 500 |
| C[C@@]1(O)CC[C@H]2[C@@H](CC[C@@H]3[C@@H]2CC[C@]2(C)[C@@H](C(=O)CN4CCCC(O)C4)CC[C@@H]32)C1 (some centres unmarked) [Entry 15] | ≥ 500 |
| C[C@H]1C[C@H]2[C@@H](CC[C@@H]3[C@@H]2CC[C@]2(C)[C@@H](C(=O)CN4CCOCC4)CC[C@@H]32)C[C@]1(C)O [Entry 18] | 100 to 500 |
| CC(=O)N1CCN(CC(=O)[C@H]2CC[C@H]3[C@@H]4CC[C@H]5C[C@](C)(O)[C@H](C)C[C@@H]5[C@H]4CC[C@]23C)CC1 [Entry 20] | 100 to 500 |
| CC(=O)N1CCN(CC(=O)[C@H]2CC[C@H]3[C@@H]4CC[C@H]5C[C@](C)(O)[C@@H](C)C[C@@H]5[C@H]4CC[C@]23C)CC1 [Entry 21] | 100 to 500 |
| COC[C@@]1(O)CC[C@H]2[C@H](CC[C@@H]3[C@@H]2CC[C@]2(C)[C@@H](C(=O)CN4CCN(S(C)(=O)=O)CC4)CC[C@@H]32)C1 [Entry 22] | 100 to 500 |
| C[C@@]1(O)CC[C@H]2[C@H](CC[C@@H]3[C@@H]2CC[C@]2(C)[C@@H](C(=O)CN4CCNCC4)CC[C@@H]32)C1 [Entry 23] | ≥ 500 |
| C[C@@]1(O)CC[C@H]2[C@@H](CC[C@@H]3[C@@H]2CC[C@]2(C)[C@@H](C(=O)CN4CCNCC4)CC[C@@H]32)C1 [Entry 24] | ≥ 500 |
| C[C@@H]1C[C@H]2[C@@H](CC[C@@H]3[C@@H]2CC[C@]2(C)[C@@H](C(=O)CN4CCN(S(C)(=O)=O)CC4)CC[C@@H]32)C[C@]1(C)O [Entry 25] | 50 to 100 |
| C[C@H]1CN(CC(=O)[C@H]2CC[C@H]3[C@@H]4CC[C@@H]5C[C@](C)(O)CC[C@@H]5[C@H]4CC[C@]23C)C[C@H](C)O1 [Entry 31] | 10 to 50 |
| CC[C@@]1(O)CC[C@H]2[C@@H](CC[C@@H]3[C@@H]2CC[C@]2(C)[C@@H](C(=O)CN4CCN(S(C)(=O)=O)CC4)CC[C@@H]32)C1 [Entry 33] | 100 to 500 |
| C[C@@H]1CCCCN1CC(=O)[C@H]1CC[C@H]2[C@@H]3CC[C@@H]4C[C@](C)(O)CC[C@@H]4[C@H]3CC[C@]12C [Entry 37] | 100 to 500 |
| C[C@@]1(O)CC[C@@H]2[C@H]3CC[C@]4(C)[C@@H](C(=O)CN5CCOCC5)CC[C@H]4[C@@H]3C[C@@H](F)[C@H]2C1 [Entry 38] | ≥ 500 |
| C[C@@H]1C[C@H]2[C@@H](CC[C@@H]3[C@@H]2CC[C@]2(C)[C@@H](C(=O)CN4CCOCC4)CC[C@@H]32)C[C@]1(C)O [Entry 39] | 100 to 500 |
| C[C@]12CC[C@H]3[C@@H](CC[C@@H]4C[C@@](O)(C(F)F)CC[C@@H]43)[C@@H]1CC[C@@H]2C(=O)CN1CCOCC1 [Entry 40] | ≥ 500 |
| CO[C@H]1C[C@H]2[C@@H](CC[C@@H]3[C@@H]2CC[C@]2(C)[C@@H](C(=O)CN4CCOCC4)CC[C@@H]32)C[C@]1(C)O [Entry 41] | ≥ 500 |
| COC[C@@]1(O)CC[C@H]2[C@@H](CC[C@@H]3[C@@H]2CC[C@]2(C)[C@@H](C(=O)CN4CCOCC4)CC[C@@H]32)C1 [Entry 42] | ≥ 500 |
| COC[C@@]1(O)CC[C@H]2[C@H](CC[C@@H]3[C@@H]2CC[C@]2(C)[C@@H](C(=O)CN4CCOCC4)CC[C@@H]32)C1 [Entry 43] | ≥ 500 |
| C[C@@]1(O)CC[C@@H]2[C@H]3CC[C@]4(C)[C@@H](C(=O)CN5CCOCC5)CC[C@H]4[C@@H]3C[C@@H](F)[C@@H]2C1 [Entry 44] | ≥ 500 |
| C[C@]12CC[C@H]3[C@@H](CC[C@@H]4C[C@@](O)(CF)CC[C@@H]43)[C@@H]1CC[C@@H]2C(=O)CN1CCOCC1 [Entry 46] | ≥ 500 |
| C[C@]12CC[C@H]3[C@@H](CC[C@H]4C[C@@](O)(CF)CC[C@@H]43)[C@@H]1CC[C@@H]2C(=O)CN1CCOCC1 [Entry 48] | ≥ 500 |
| CC[C@@]1(O)CC[C@H]2[C@@H](CC[C@@H]3[C@@H]2CC[C@]2(C)[C@@H](C(=O)CN4CCOCC4)CC[C@@H]32)C1 [Entry 49] | ≥ 500 |
| C[C@@]1(O)CC[C@H]2[C@H](CC[C@@H]3[C@@H]2CC[C@]2(C)[C@@H](C(=O)CN4CCNCC4)CC[C@@H]32)C1 [Entry 51] | 100 to 500 |
| COC[C@@]1(O)CC[C@H]2[C@@H](CC[C@@H]3[C@@H]2CC[C@]2(C)[C@@H](C(=O)CN4CCN(S(C)(=O)=O)CC4)CC[C@@H]32)C1 [Entry 52] | 100 to 500 |
| C[C@@]1(O)CC[C@H]2[C@H](CC[C@@H]3[C@@H]2CC[C@]2(C)[C@@H](C(=O)CN4CCCOCC4)CC[C@@H]32)C1 [Entry 53] | 100 to 500 |
